Where “and” joins values, the source holds several entries; their conditions need not be identical. Equal entries are not always repeated. Structures can show the parent of a compound that is named as a salt. Where two headings read alike, the source gives them in different places. Values belong to the compound of their own block, whether it stands above or below them.
Key:
Recombinant MAPKAPK2 = Recombinant MAPKAPK2 (Homo sapiens, UniProt P49137); assay: Determination of MK-2 IC50 (HSP-peptide phosphorylation, anion exchange resin capture assay)
Recombinant MAPKAPK2, sequence (P49137 whole entry, species assumed): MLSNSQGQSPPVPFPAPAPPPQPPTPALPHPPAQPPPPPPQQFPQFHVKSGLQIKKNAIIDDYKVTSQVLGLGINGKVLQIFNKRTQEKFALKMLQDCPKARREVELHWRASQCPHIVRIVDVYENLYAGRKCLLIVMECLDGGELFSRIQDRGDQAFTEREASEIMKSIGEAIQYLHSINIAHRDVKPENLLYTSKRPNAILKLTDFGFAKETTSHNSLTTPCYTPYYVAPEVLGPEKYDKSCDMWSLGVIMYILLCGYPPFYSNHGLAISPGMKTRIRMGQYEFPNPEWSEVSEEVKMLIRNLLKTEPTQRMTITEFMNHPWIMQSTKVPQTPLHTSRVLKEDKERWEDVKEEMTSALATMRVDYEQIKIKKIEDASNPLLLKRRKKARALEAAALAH
Description: The phosphorylation of HSP-peptide ([sequence]) by MAPKAPK2 was measured using an anion exchange resin capture assay method. […] The reaction was terminated and [γ^33P]ATP was removed from solution by the addition of 150 μl of AG 1×8 ion exchange resin in 900 mM sodium formate pH 3.0. A 50 μl aliquot of head volume was removed from the quenched reaction mixture and added to a 96-well plate, 150 μl of Microscint-40 (Packard) was added and the amount of phosphorylated-peptide was determined. Allow the Microscint to sit in the plates for 60 minutes prior to counting.
Compounds are evaluated as potential inhibitors of the MK2 kinase by measuring their effects on MK2 phosphorylation of the peptide substrate. Compounds may be screened initially at two concentrations prior to determination of IC50 values. Screening results are expressed as percent inhibition at the concentrations of compound tested. For IC50 value determinations, compounds are tested at six concentrations in ten-fold serial dilutions with each concentration tested in triplicate. Results are expressed as IC50 values in micromolar. The assay is performed at a final concentration of 2% DMSO.

TNFα release, U937 cells = assay: U937 Cell TNFα Release Assay (LPS-stimulated, TNFα ELISA); type: cell-based, human; settings: additional values are replicate IC50 experiments, read-out: TNF Release Assay Avg. IC50
Description: U937 Cell TNFα Release Assay
Differentiation of U937 to monocytic/macrophage-like cells is induced by the addition of phorboll2-myristate 13-acetate (Sigma) at final concentration of 20 ng/ml to a culture of U937 cells at ˜0.5 million cells/ml and incubated for 24 hrs. The cells are centrifuged, washed with PBS and resuspended in fresh media without PMA and incubated for 24 hrs. Cells adherent to the culture flask are harvested by scraping, centrifugation, and resuspended in fresh media to 2 million cells/ml, and 0.2 ml is aliquoted to each of 96 wells in flat-bottom plate. Cells are then incubated for an additional 24 hrs to allow for recovery. The media is removed from the cells, and 0.1 ml of fresh media is added per well. 0.05 ml of serially diluted compound or control vehicle (Media with DMSO) is added to the cells. […] Cells are incubated at 37° C. for 4 hrs. After 4 hrs incubation, supernatants are harvest and assayed by ELISA for the presence of TNFα.
Coating solution was aspirated the following day and wells were blocked with 1 mg/ml gelatin in PBS (plus 1×thimerasol) for 2 days at 4° C. Prior to using, wells were washed 3× with wash buffer (PBS with 0.05% Tween). Cultured media samples were diluted in EIA buffer (5 mg/ml bovine γ-globulin, 1 mg/ml gelatin, 1 ml/l Tween-20, 1 mg/ml thimerasol in PBS), added to wells (0.1 ml/well) in triplicate and allowed to incubate for 1.5 hr at 37° C. in a humidified chamber. […] After final washing, plates were developed with peroxidase-ABTS solution (Kirkegaard/Perry #50-66-01, 0.1 ml/well). […] TNF levels were quantitated from a recombinant human TNFα (R&D Systems #210-TA-010) standard curve using a quadratic parameter fit generated by SoftMaxPRO software. ELISA sensitivity was approximately 30 pg TNF/ml. IC50 values for compounds were generated using BioAssay Solver.

rat adjuvant arthritis = settings: in vivo; cited from earlier work
[1] = tested on: murine model of endotoxin-induced shock; settings: cited from earlier work
[2] = tested on: mouse collagen-induced arthritis; settings: in vivo; cited from earlier work
[3] = read-out: in vitro MK-2 inhibition IC50
[4] = Homo sapiens, U-937, U937 cells

IC50 (Recombinant MAPKAPK2; [3]): < 200 µM
Compound: ON=C1CCCc2c1[nH]c1ccc(C(F)(F)F)cc21 [6-(trifluoromethyl)-2,3,4,9-tetrahydro-1H-carbazol-1-one oxime]

IC50 (TNFα release, U937 cells; [4]): 15.3 µM
IC50 (Recombinant MAPKAPK2): 7.01 µM
Compound: O/N=C1\CCCc2c1[nH]c1ccc(Br)cc21 [Compound 14]

IC50 (Recombinant MAPKAPK2): > 200 µM
Compound: O=C1NCCc2c1[nH]c1ccc(CCc3ccccc3)cc21 [Compound 42, 6-(2-phenylethyl)-2,3,4,9-tetra-hydro-1H-beta-car-bolin-1-one]

IC50 (Recombinant MAPKAPK2; [3]): < 20 µM
Compound: COC(=O)c1cccc2c3c([nH]c12)CCNC3=O [Example 6, methyl 1-oxo-2,3,4,5-tetrahydro-1H-pyrido[4,3-b]indole-6-carboxylate]

Continued, compound first:

Compound: O=C1NCCc2[nH]c3c(ccc4cnccc43)c21 [Compound 1, 8,9,10,11-tetrahydro-7H-py-rido[3′,4′:4,5]pyrrolo[2,3-f]isoquinolin-7-one trifluoroacetate]
IC50 (TNFα release, U937 cells; [4]): 0.845 µM

Compound: COc1ccc2[nH]c3c(c2c1)CCC(C)/C3=N/O (stereo not shown) [Compound 19, 6-methoxy-2-methyl-2,3,4,9-tetrahydro-1H-car-bazol-1-one oxime]
IC50 (TNFα release, U937 cells; U937 cells): 100 µM and 95 µM

Compound: C[S+]([O-])c1ccc(-c2nc(-c3ccncc3)c(-c3ccc(F)cc3)[nH]2)cc1 (stereo not shown) [SB203580]
development of rat adjuvant arthritis (rat adjuvant arthritis): inhibit the development
mortality [1]: reduce mortality
development of mouse collagen-induced arthritis [2]: inhibit the development

Reference: patent publication US20050143371A1, “Beta-carboline compounds and analogues thereof as mitogen-activated protein kinase-activated protein kinase-2 inhibitors” (Pharmacia Corporation, priority 2003, published 2005)
